Laboratory results: ChEMBL document CHEMBL1155798, “Enhanced affinity of ketotifen toward tamarind seed polysaccharide in comparison with hydroxyethylcellulose and hyaluronic acid: a nuclear magnetic resonance investigation” (Bioorg Med Chem, 2008)
Calls of active or inactive are those of the source. No cut-off for these calls is given here.

What was measured:
Tamarindus indica [1] = assay: Binding affinity to tamarind seed polysaccharide by NMR
Tamarindus indica [2] = assay: Binding affinity to tamarind seed polysaccharide by dynamic dialysis

Activity (Tamarindus indica [1]): Active
Activity (Tamarindus indica [2]): Active
SMILES: CN1CCC(=C2c3ccccc3CC(=O)c3sccc32)CC1
